# Test results published in US20040132188A1, “Use of non-complexing peptides for the preparation of a composition for transfection of a polynucleotide into a cell and compositions useful in gene therapy” (priority 2001, published 2004).
# Entries after “also recorded” stand apart in the source; their conditions may differ. Ends that are not written are not given here.
# How the values were obtained:
# plasmid pTG11236 = assay: Gel retardation assay (DNA binding activity)
# Experimental: 3 μg of the plasmid pTG11236 were incubated with increasing amounts of the respective peptide in a final volume of 30 μl with 0.9% NaCl. After 20 min of incubation at room temperature, 6 μl 5× loading buffer (glycerol and bromphenol blue in TAE buffer) were added and 10 μl of these solutions were analyzed on a 1% agarose gel in the presence of ethidium bromide.
# The ability of ppTG1 peptide to complex DNA was analyzed by gel retardation assays. […] After 20 minutes incubation at room temperature, loading buffer was added and 10 μl of the resulting solution were analyzed on a 1% agarose gel.
# ppTG1 derivatives as they are indicated in Materials and Methods, were tested for their capacity to bind plasmid DNA by gel retardation assays.
# [1] = Liposome leakage assay, calcein-containing POPC liposomes; type: biochemical
# Experimental: Leakage activity was plotted against peptide concentration.
# The peptide ppTG1 was tested for its capacity to cause membrane disruption in a liposome leakage assay with POPC liposomes containing the fluorescent product calcein. […] Release of calcein by Triton X-100 treatment was taken as positive control reaction, incubation with water served as negative control. The membranolytic activity of peptide ppTG1 (20 μg as starting point) was compared with those of equal quantities (20 μg) of JTS-1, JTS-1-K13 and KALA.
# 293-EBNA cells = assay: Transfection in vitro, luciferase plasmid pTG11056; type: cell-based; conditions: charge ratio around 1
# Experimental: Cells were plated on 24 well plates at a density of 4×10^4 (293-EBNA ) or 7×10^4 (HeLa, Renca) cells/well in DMEM supplemented with 10% FCS. The next day, the medium was replaced by 200 μl serum-free DMEM and plasmid (PTG11056 or pTG11236)/peptide complexes or plasmid/peptide/lipid complexes were prepared in 30 μl 0.9% NaCl or 5% glucose. After 20 min at room temperature these complexes were added to the cells which were then incubated for 2-3 h at 37° C. and 5% CO2 before 1 ml serum-containing DMEM was added. Approximately 20 hours later, cells were lysed by addition of 100 μl 1× Promega lysis buffer, 20 μl of the lysates were analysed for luciferase activity. Proteins were quantified with the bicinchonic acid (BCA) colorimetric method (Smith, Anal. Biochem. 150 (1985), 76-85).
# 4×10^4 293-EBNA cells, plated on 24 well plates the day before, were transfected with 0.5 μg, 0.1 μg, 0.05 μg arid 0.01 μg of the plasmid pTG11056. The plasmid was either mixed with completely or uncompletely DNA-complexing amounts of ppTG1 in 30 μl 5% glucose and after 20 min at room temperature the mixture was added to the cells which were incubated in 200 μl serum-free medium. Further, pTG11056 was formulated with the established transfection reagents Lipofectin and PEI. […] After twenty hours, cells were washed and luciferase activity was determined in ⅕of the lysed cells.
# CHO cells = assay: Transfection in vitro, luciferase plasmid pTG11236; type: cell-based
# Experimental: A comparison of ppTG1 and KALA was carried out in HeLa and CHO cells. 5×10^4 cells were seeded on 24 well plates. The next day, cells were transfected with 500 ng and 50 ng of pTG11236, complexed with ppTG1 or KALA in 30μl 0.9% NaCl. The charge ratio±varied from 1, 2, 3, 4, 7 to 10. Cells were harvested 20 h after transfection and lysis was obtained in 100 μl Promega lysis buffer. Luciferase activity and total protein concentrations in 20 μl were determined.
# [2] = tested on: WiDr, MDA-MB-435S, SW480 and LoVo; assay: Transfection of human tumor cell lines; type: cell-based; conditions: peptide/plasmid pTG11236 complexes, luciferase day 1
# Experimental: WiDr (ATCC CCL-218), MDA-MB-435S (ATCC HTB-129), SW480 (ATCC CCL-228) and LoVo cell (CCL-229) were cultivated in the appropriate medium with 10% fetal calf serum, 1% gentamycine, 1% glutamine and 3 g/l glucose, in an incubator at 37° C. and 5% CO2.
# The transfection efficiencies with plasmid/ppTG1 complexes were tested in the human tumor cells WiDr, MDA-MB-435S, SW480 and LoVo (ATCC) in comparison to lipofectin, PEI and pcTG90/DOPE (1:1) [±] 5.
# HeLa cells = assay: Transfection in the presence of Bafilomycin A; type: cell-based; conditions: 175 nM Bafilomycin A, 150 ng pTG11236
# Experimental: Transfection in the presence of Bafilomycin A: 6×10^4 HeLa cells were plated on 24 well plates. Cells were treated with 175 nM Bafilomycin A 30 min before and throughout the transfection (1 h incubation of cells with transfection mix in the absence of serum).
# Bafilomycin A is a specific inhibitor of the vacuolar proton pump. Treatment with Bafilomycin inhibits the acidification of late endosomes. HeLa cells were treated with Bafilomycin A (175 nM) 30 min before and throughout the transfection (1 h incubation with transfection complexes in the absence of serum). 6×10^4 cells were transfected with 150 ng pTG11236 using PEI or ppTG1. The luciferase assay was performed 1 day after transfection.
# B6SJL mice, lungs [3] = assay: In vivo gene transfer after intravenous injection, luciferase activity in the lungs
# Experimental: Mice were sacrificed at day 1.
# Lungs were tested for luciferase activity.
# B6SJL mice, lungs [4] = assay: as above; conditions: 3 days after injection
sequence,measurement,setting,value
GLFKALLKLLKSLWKLLLKA,DNA complexed,"plasmid pTG11236; 1 μg peptide (0.35 nmol), 3 μg pTG11236",50%
same,amount of peptide giving retardation of plasmid,"plasmid pTG11236; 3 μg plasmid DNA pTG11236 (0,8 pmol)",4 µg
same,membrane disruption,[1]; pH 5,capable of causing membrane disruption
same,membrane disruption,[1]; pH 7,capable of causing membrane disruption
same,transfection efficiency,293-EBNA cells; 0.05 μg pTG11056 with 0.065 μg peptide,high transfection efficiency
same,luciferase activities,293-EBNA cells; 0.5 μg pTG11056 with 0.65 μg peptide,higher than those observed with complexes formed with Lipofectin or PEI
same,more efficient in gene transfer than KALA,CHO cells; 50 ng pTG11236,68 fold
same,more efficient in gene transfer than KALA,CHO cells; 500 ng pTG11236,9 fold
same,more efficient than the complex comprising KALA,"CHO cells; CHO cells, in the best case",2500 fold
same,transfection of human tumor cell lines,[2],successfully transfected; also recorded: can efficiently transfect
same,effect of Bafilomycin A on transfection efficiency,HeLa cells,did not influence
same,re-administration of peptide/plasmid complexes,"B6SJL mice, lungs [3]; at day 3 after the first injection",refractory
same,re-administration of peptide/plasmid complexes,"B6SJL mice, lungs [3]; at day 14 after the first injection",re-appearance of reporter gene expression
same,mice with gene expression in the lung,"B6SJL mice, lungs [3]; complexes of pTG11236 and peptide, intravenous, day 1",5 out of 5
same,gene transfer efficiency in the lung,"B6SJL mice, lungs [3]; pTG11236/peptide complexes intravenously injected, luciferase day 1",at least comparable to gene transfer with the optimized lipoplexes; also recorded: comparable to those obtained with the lipoplexes; also recorded: better than with JTS-1-K13
same,improvement of gene expression by presence of peptide in complexes comprising cationic lipids,"B6SJL mice, lungs [3]; pcTG90/DOPE 1:2 complexes, intravenous, lung, day 1",10 factor
same,gene expression over time,"B6SJL mice, lungs [4]",background levels
